For this experiment, the target named is T1, recombinant human plasminogen activator inhibitor-1 (PAI-1) (Homo sapiens, UniProt P05121).
T1 construct: purchased Molecular Innovations, Royal Oak, Mich
T1 sequence (P05121 24-402): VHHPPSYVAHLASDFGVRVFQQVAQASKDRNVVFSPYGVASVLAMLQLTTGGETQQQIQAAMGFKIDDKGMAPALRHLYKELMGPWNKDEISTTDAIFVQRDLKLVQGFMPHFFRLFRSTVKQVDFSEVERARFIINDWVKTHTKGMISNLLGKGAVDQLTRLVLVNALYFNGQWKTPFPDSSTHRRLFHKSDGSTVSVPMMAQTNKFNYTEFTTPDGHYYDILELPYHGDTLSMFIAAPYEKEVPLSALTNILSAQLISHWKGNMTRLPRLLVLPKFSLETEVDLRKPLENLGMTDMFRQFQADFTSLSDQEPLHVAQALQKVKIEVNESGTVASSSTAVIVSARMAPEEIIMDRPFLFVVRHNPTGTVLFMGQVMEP
Briefly: Primary screen for the PAI-1 inhibition (chromogenic tPA activity, Spectrozyme-tPA). It counts as biochemical. To be noted: compound at 100 μM. On the procedure:
Test compounds are dissolved in DMSO at a final concentration of 10 mM, then diluted 100× in physiologic buffer. The inhibitory assay is initiated by the addition of the substituted oxadiazolidinedione (1–100 μM final concentration, maximun DMSO concentration of 0.2%) in a pH 6.6 buffer containing 140 nM recombinant human plasminogen activator inhibitor-1 (PAI-1; Molecular Innovations, Royal Oak, Mich.). Following a 1 hour incubation at room temperature, 70 nM of recombinant human tissue plasminogen activator (tPA) is added, and the combination of the substituted oxadiazolidinedione, PAI-1 and tPA is incubated for an additional 30 minutes. Following the second incubation, Spectrozyme-tPA (American Diagnostica, Greenwich, Conn.), a chromogenic substrate for tPA, is added and absorbance read at 405 nm at 0 and 60 minutes. Relative PAI-1 inhibition is equal to the residual tPA activity in the presence of the test compound and PAI-1. Control treatments include the complete inhibition of tPA by PAI-1 at the molar ratio employed (2:1), and the absence of any effect of the substituted oxadiazolidinedione on tPA alone.
As to `O=c1[nH]c(=O)n(Cc2cccc(C#CCOc3cccc(Cl)c3)c2)o1` [Compound 69, 2-{3-[3-(3-chlorophenoxy)prop-1-ynyl]benzyl}-1,2,4-oxadiazolidine-3,5-dione], the inhibition at 100 µM stood at 85%.
As for “2-{3-[3-(4-isobutylphenoxy)prop-1-ynyl]benzyl}-1,2,4-oxadiazolidine-3,5-dione [Compound 70]”, the “% Inhibition @ 100 μM” value amounted to 76%.
For the compound `C#CCn1cc(Cn2oc(=O)[nH]c2=O)c2cc(OCc3ccc(C(C)(C)C)cc3)ccc21` [Compound 23, 2-{[5-[(4-tert-butylbenzyl)oxy]-1-(2-propynyl)-1H-indol-3-yl]methyl}-1,2,4-oxadiazolidine-3,5-dione], the inhibition at 100 µM is 91%.
`Cc1cccc(COc2cc(Cn3oc(=O)[nH]c3=O)cc(OCc3cccc(C)c3)c2)c1` [Compound 73, 2-{3,5-bis[(3-methylbenzyl)oxy]benzyl}-1,2,4-oxadiazolidine-3,5-dione]: the inhibition at 100 µM amounted to 81%.
Turning to `COc1cc(Cn2oc(=O)[nH]c2=O)cc(OCc2cccc(Cl)c2)c1OCc1cccc(Cl)c1` [Compound 78, 2-{3,4-bis[(3-chlorobenzyl)oxy]-5-methoxybenzyl}-1,2,4-oxadiazolidine-3,5-dione], the inhibition at 100 µM was 91%.
For the compound `O=c1[nH]c(=O)n(Cc2cccc(-c3cccc(OCc4c(Cl)cccc4Cl)c3)c2)o1` [Compound 47, 2-({3′-[(2,6-dichlorobenzyl)oxy]-1,1′-biphenyl-3-yl}methyl)-1,2,4-oxadiazolidine-3,5-dione], the inhibition at 100 µM worked out at 88%.
Take “2-{4-[3-(4-isobutylphenoxy)prop-1-ynyl]benzyl}-1,2,4-oxadiazolidine-3,5-dione [Compound 64]”: the “% Inhibition @ 100 μM” value was determined as 65%.
For the compound `C#CCn1cc(Cn2oc(=O)[nH]c2=O)c2cc(OCc3ccccc3Cl)ccc21` [Compound 17, 2-{[5-[(2-chlorobenzyl)oxy]-1-(2-propynyl)-1H-indol-3-yl]methyl}-1,2,4-oxadiazolidine-3,5-dione], the inhibition at 100 µM was found to be 49%.
The same measure, in the same setting: then `O=c1[nH]c(=O)n(Cc2cc(OCc3ccc(C(F)(F)F)cc3)cc(OCc3ccc(C(F)(F)F)cc3)c2)o1` [Compound 72, 2-(3,5-bis{[4-(trifluoromethyl)benzyl]oxy}benzyl)-1,2,4-oxadiazolidine-3,5-dione], with 87%; and `O=c1[nH]c(=O)n(Cc2cn(Cc3ccccc3)c3ccc(OCc4ccc5ccccc5c4)cc23)o1` [Compound 22, 2-{[1-benzyl-5-(2-naphthylmethoxy)-1H-indol-3-yl]methyl}-1,2,4-oxadiazolidine-3,5-dione], with 92%; and `O=c1[nH]c(=O)n(Cc2ccc(OCc3ccc(C(F)(F)F)cc3)c(OCc3ccc(C(F)(F)F)cc3)c2)o1` [Compound 86, 2-(3,4-bis{[4-(trifluoromethyl)benzyl]oxy}benzyl)-1,2,4-oxadiazolidine-3,5-dione], with 94%.
In the case of `O=c1[nH]c(=O)n(Cc2cccc(C#CCOc3ccc(Br)cc3)c2)o1` [Compound 66, 2-{3-[3-(4-bromophenoxy)prop-1-ynyl]benzyl}-1,2,4-oxadiazolidine-3,5-dione], the inhibition at 100 µM turned out to be 85%.
Turning to `O=c1[nH]c(=O)n(Cc2cccc(C#CCOc3cc(Cl)cc(Cl)c3)c2)o1` [Compound 68, 2-{3-[3-(3,5-dichlorophenoxy)prop-1-ynyl]benzyl}-1,2,4-oxadiazolidine-3,5-dione], the inhibition at 100 µM amounted to 93%.
Take `C#CCn1cc(Cn2oc(=O)[nH]c2=O)c2cc(OCc3ccc(Br)cc3)ccc21` [Compound 24, 2-{[5-[(4-bromobenzyl)oxy]-1-(2-propynyl)-1H-indol-3-yl]methyl}-1,2,4-oxadiazolidine-3,5-dione]: the inhibition at 100 µM stood at 68%.
For `O=c1[nH]c(=O)n(Cc2cccc(-c3cccc(OCc4ccccc4)c3)c2)o1` [Compound 40, 2-{[3′-(benzyloxy)-1,1′-biphenyl-3-yl]methyl}-1,2,4-oxadiazolidine-3,5-dione], the inhibition at 100 µM was found to be 96%.
On the same count and under the same terms, then `C#CCn1cc(Cn2oc(=O)[nH]c2=O)c2cc(OCc3ccc(C(F)(F)F)cc3)ccc21` [Compound 12, 2-[(1-(2-propynyl)-5-{[4-(trifluoromethyl)benzyl]oxy}-1H-indol-3-yl)methyl]-1,2,4-oxadiazolidine-3,5-dione], with 100%; and `O=c1[nH]c(=O)n(Cc2cccc(OCc3cccc(Cl)c3)c2OCc2cccc(Cl)c2)o1` [Compound 83, 2-{2,3-bis[(3-chlorobenzyl)oxy]benzyl}-1,2,4-oxadiazolidine-3,5-dione], with 95%.
In the case of `Cc1cccc(COc2cccc(Cn3oc(=O)[nH]c3=O)c2OCc2cccc(C)c2)c1` [Compound 82, 2-{2,3-bis[(3-methylbenzyl)oxy]benzyl}-1,2,4-oxadiazolidine-3,5-dione], the inhibition at 100 µM amounted to 80%.
Take `C=CCn1cc(Cn2oc(=O)[nH]c2=O)c2cc(OCc3cc(C(F)(F)F)cc(C(F)(F)F)c3)ccc21` [Compound 5, 2-[(1-allyl-5-{[3,5-bis(trifluoromethyl)benzyl]oxy}-1H-indol-3-yl)methyl]-1,2,4-oxadiazolidine-3,5-dione]: the inhibition at 100 µM worked out at 100%.
In the case of `C=CCn1cc(Cn2oc(=O)[nH]c2=O)c2cc(OCc3ccc(Br)cc3)ccc21` [Compound 25, 2-({1-allyl-5-[(4-bromobenzyl)oxy]-1H-indol-3-yl}methyl)-1,2,4-oxadiazolidine-3,5-dione], the inhibition at 100 µM was 64%.
With `O=c1[nH]c(=O)n(Cc2cn(Cc3ccccc3)c3ccc(OCc4ccc(Cl)c(Cl)c4)cc23)o1` [Compound 19, 2-({1-benzyl-5-[(3,4-dichlorobenzyl)oxy]-1H-indol-3-yl}methyl)-1,2,4-oxadiazolidine-3,5-dione], the inhibition at 100 µM was found to be 79%.
For the compound `O=c1[nH]c(=O)n(Cc2cccc(OCc3ccc(C(F)(F)F)cc3)c2OCc2ccc(C(F)(F)F)cc2)o1` [Compound 81, 2-(2,3-bis{[4-(trifluoromethyl)benzyl]oxy}benzyl)-1,2,4-oxadiazolidine-3,5-dione], the inhibition at 100 µM is 92%.
In the case of “2-[(3′-{[3-(trifluoromethyl)benzyl]oxy}-1,1′-biphenyl-3-yl)methyl]-1,2,4-oxadiazolidine-3,5-dione [Compound 41]”, the “% Inhibition @ 100 μM” value was found to be 81%.
For the compound `O=c1[nH]c(=O)n(Cc2ccc(C#CCOc3cc(C(F)(F)F)cc(C(F)(F)F)c3)cc2)o1` [Compound 61, 2-(4-{3-[3,5-bis(trifluoromethyl)phenoxy]prop-1-ynyl}benzyl)-1,2,4-oxadiazolidine-3,5-dione], the inhibition at 100 µM turned out to be 87%.
`O=c1[nH]c(=O)n(Cc2cccc(OCc3ccccc3Br)c2OCc2ccccc2Br)o1` [Compound 85, 2-{2,3-bis[(2-bromobenzyl)oxy]benzyl}-1,2,4-oxadiazolidine-3,5-dione]: the inhibition at 100 µM is 93%.
Regarding `COc1cc(Cn2oc(=O)[nH]c2=O)cc(OCc2cccc(C)c2)c1OCc1cccc(C)c1` [Compound 77, 2-{3-methoxy-4,5-bis[(3-methylbenzyl)oxy]benzyl}-1,2,4-oxadiazolidine-3,5-dione], the inhibition at 100 µM is 88%.
`O=c1[nH]c(=O)n(Cc2cccc(-c3cccc(OCc4ccc5ccccc5c4)c3)c2)o1` [Compound 44, 2-{[3′-(2-naphthylmethoxy)-1,1′-biphenyl-3-yl]methyl}-1,2,4-oxadiazolidine-3,5-dione]: the inhibition at 100 µM was 28%.

A word on the inhibition: it is the share of the control response that was lost under treatment.

These data come from patent US7141592B2, “Substituted oxadiazolidinediones” (Wyeth, priority 2003, dated 2006).
